Test results published in the RepoRT retention time repository (doi:10.1021/acs.analchem.2c02893).

Experiment: RP, Thermo Scientific Acclaim RSLC 120 C18, 100 × 2.1 mm, 2.2 µm, 30 °C, 0.2 mL/min, estimated dead time 1.1 min; A: 90% water + 10% methanol + 0.01% formic acid + 5 mM ammonium formate, pH 3.61; B: methanol + 0.01% formic acid + 5 mM ammonium formate, pH 3.61; gradient (min/%B) 0/1 1/1 2/39 13/99.9 15/99.9 15.1/1 20.1/1
Settings: stereoisomer not certain

LC retention time [min]	SMILES
3.43	CC(=O)Nc1nnc(S(N)(=O)=O)s1 [Acetazolamide]
7.87	Fc1ccc(C2CCNCC2COc2ccc3c(c2)OCO3)cc1 (stereo not drawn) [Paroxetine]
3.53	Cn1ncc(N)c(Cl)c1=O [Chloridazone-methyl-desphenyl]
8.22	CC(C)Nc1nc(Cl)nc(NC2CC2)n1 [Cyprazin]
6.99	CCCc1nn(C)c2c(=O)[nH]c(-c3cc(C(=O)CN4CCN(C)CC4)ccc3OCC)nc12 [Acetildenafil-Nor]
4.63	Cc1cc(=O)n(-c2ccccc2)n1C [Phenazone]
3.41	Nc1nc(=O)n(C2CSC(CO)O2)cc1F (stereo not drawn) [Emtricitabine]
7.21	CN(C)CCCN1c2ccccc2Sc2cccnc21 [Prothipendyl]
3.79	CC(NCCc1ccc(O)cc1)C(O)c1ccc(O)cc1 (stereo not drawn) [Ritodrine]
10.7	O=C1Nc2ccc(Cl)cc2C(C#CC2CC2)(C(F)(F)F)O1 (stereo not drawn) [Efavirenz]
7.48	Clc1ccc2c(c1)CCc1cccnc1C2=C1CCNCC1 [Desloratadine]
9.89	CN1CCN(CCCN2c3ccccc3Sc3ccc(Cl)cc32)CC1 [Prochlorperazine]
14.9	Cc1ccc(N=Nc2c(O)ccc3ccccc23)c(C)c1 [Sudan II]
10.6	COC(=O)C(C)Oc1ccc(Cl)cc1C (stereo not drawn) [Mecoprop-methylester]
8.63	O=C1CCc2ccc(OCCCCN3CCN(c4cccc(Cl)c4Cl)CC3)cc2N1 [Aripiprazole]
11.2	CC(=O)C1CCC2C3CCC4=CC(=O)CCC4(C)C3CCC12C (stereo not drawn) [Progesterone]
10.5	CCCc1nn(C)c2c(=S)nc(-c3cc(S(=O)(=O)N4CCN(CCO)CC4)ccc3OCC)[nH]c12 [Sildenafil-Hydroxythiohomo]
3.8	Nc1ccc(S(=O)(=O)Nc2ccccn2)cc1 [Sulfapyridine]
5.24	CCCN1CC(NS(=O)(=O)N(CC)CC)CC2Cc3c(O)cccc3CC21 (stereo not drawn) [Quinagolide]
6.67	CSc1ccc(C(=O)c2[nH]c(=O)[nH]c2C)cc1 [Enoximon]
12	O=C(Nc1ccc(Cl)cc1)Nc1ccc(Cl)c(Cl)c1 [Triclocarban]
4.19	O=C1OCCN1N=Cc1ccc([N+](=O)[O-])o1 [Furazolidone]
7.85	CC12C=CC(=O)C=C1CCC1C2C(=O)CC2(C)C1CCC2(O)C(=O)CO (stereo not drawn) [Prednisone]

LC retention time [min]	SMILES
7.83	CCCCNc1cc(C(=O)O)cc(S(N)(=O)=O)c1Oc1ccccc1 [Bumetanide]
8.31	COC(=O)C1=C(C)NC(C)=C(C(=O)OC)C1c1ccccc1[N+](=O)[O-] [Nifedipine]
6.74	CN1CCCCC1CCN1c2ccccc2Sc2ccc(S(C)=O)cc21 (stereo not drawn) [Mesoridazine]
8.43	CSc1nc(N)nc(NC(C)(C)C)n1 [Irgarol-descyclopropyl]
6.67	Cc1ccc(NC=O)c(C)c1 [N-2-4-Dimethylphenylformamide (DMF. Metabolite Amitraz)]
7.21	CNCCN1C(=O)C(OC(C)=O)C(c2ccc(OC)cc2)Sc2ccccc21 (stereo not drawn) [Diltiazem-Nor]
6.18	CNCC(c1ccc(OC)cc1)C1(O)CCCCC1 (stereo not drawn) [Venlafaxine-N-Desmethyl (norvenlafaxine)]
2.8	C=CC(=O)NC(C)(C)CS(=O)(=O)O [2-Acrylamido-2-methylpropane sulfonic acid (AMPS)]
2.63	N=C(N)c1ccccc1 [Benzamidine]
7.93	CCOc1nc2cccc(C(=O)O)c2n1Cc1ccc(-c2ccccc2-c2nn[nH]n2)cc1 [Candesartan]
4.54	CN1CC2CC1CN2c1cc2c(cc1F)c(=O)c(C(=O)O)cn2C1CC1 (stereo not drawn) [Danofloxacin]
7.01	CN(C)CCC=C1c2ccccc2COc2ccccc21 [Doxepin]
11.2	CC(C)C(=O)Nc1ccc([N+](=O)[O-])c(C(F)(F)F)c1 [Flutamide]
8.28	CN1CCN(C(c2ccccc2)c2ccc(Cl)cc2)CC1 (stereo not drawn) [Chlorcyclizine]
4.16	Cc1nnc(SCC2=C(C(=O)O)N3C(=O)C(NC(=O)Cn4cnnn4)C3SC2)s1 (stereo not drawn) [Cefazolin]
9.23	CCC1OC(=O)C(C)C(OC2CC(C)(OC)C(O)C(C)O2)C(C)C(OC2OC(C)CC(N(C)C)C2O)C(C)(O)CC(C)C(=NOCOCCOC)C(C)C(O)C1(C)O (stereo not drawn) [Roxithromycin]
4.27	Cc1ncc([N+](=O)[O-])n1C [Dimetridazole]
4.99	Cc1cc2c(s1)Nc1ccccc1N=C2N1CCN(C)CC1 [Olanzapine]
7.46	Nc1ncnc(Nc2ccc(Cl)cc2)n1 [Chlorazanil]
9.19	CCN(CC)CCOC(=O)C(c1ccccc1)C1CCCCC1 (stereo not drawn) [Drofenine]
10.9	c1ccc2sc(NC3CCCCC3)nc2c1 [N-Cyclohexyl-2-benzothiazol-amine]
6.09	CC(NC(=O)C(N)CC(=O)O)C(=O)NC1C(C)(C)SC1(C)C (stereo not drawn) [Alitame]

Further lines, the molecule ahead of its results:

SMILES	LC retention time [min]
CCC(=O)C(CC(C)N(C)C)(c1ccccc1)c1ccccc1 (stereo not drawn) [Methadone]	8.04
CCCCCn1cc(C(=O)c2cccc3ccccc23)c2cc(O)ccc21 [JWH-018-M-5-OH-Ind]	11.3
O=C1Nc2ccc([N+](=O)[O-])cc2C(c2ccccc2F)=NC1O (stereo not drawn) [Nifoxipam]	6.58
COC1=CC(=O)OC(C=Cc2ccccc2)C1 (stereo not drawn) [Kavain]	8.32
Cc1ccc(N(SC(F)(Cl)Cl)S(=O)(=O)N(C)C)cc1 [Tolyfluanid]	10.8
CNCC12CCC(c3ccccc31)c1ccccc12 [Benzoctamine]	6.52
CC(C)(c1ccc(OCC2CO2)cc1)c1ccc(OCC2CO2)cc1 (stereo not drawn) [Bisphenol A diglycidyl ether]	10.8
CCCCCn1nc(C(=O)NC23CC4CC(CC(C4)C2)C3)c2ccccc21 [AKB48 (APINACA)]	14
O=C(O)CCCCn1cc(C(=O)c2cccc3ccccc23)c2ccccc21 [JWH-018-M-N-Pentanoic acid]	9.71
CN1C(=O)CN=C(c2ccccc2F)c2cc(N)ccc21 [Flunitrazepam- 7-Amino]	5.41
CN1C(=O)CC(=O)N(c2ccccc2)c2cc(Cl)ccc21 [Clobazam]	8.08
NC(=O)CS(=O)C(c1ccccc1)c1ccccc1 (stereo not drawn) [Modafinil]	6.76
CN(C)C(=O)Nc1ccc(-n2nc(C(C)(C)C)oc2=O)c(Cl)c1 [Dimefuron]	8.76
CCOP(=S)(OCC)Oc1cc(Cl)c(Br)cc1Cl [Bromophos-ethyl]	13.5
CCCCCn1cc(C(=O)c2ccc(F)c3ccccc23)c2ccccc21 [JWH-412]	12.8
N#Cc1c[nH]cc1-c1cccc(Cl)c1Cl [Fenpiclonil]	8.91
CCOP(=S)(OCC)SCSc1ccc(Cl)cc1 [Carbophenothion]	12.9
C=CCOC(=O)C(C)(C)OC(=O)c1cc(-n2c(=O)cc(C(F)(F)F)n(C)c2=O)ccc1Cl [Butafenacil]	9.89
CC1(C)C(C=C(Cl)Cl)C1C(=O)OCc1cccc(Oc2ccccc2)c1 (stereo not drawn) [Permethrin]	13.9

SMILES	LC retention time [min]
CNC(C)Cc1ccccc1F (stereo not drawn) [Amphetamine-2-F-Methyl (2-F-methamphetamine)]	4.33
CN1CCN(C=C2N=C3CN=C(c4ccccc4Cl)c4cc([N+](=O)[O-])ccc4N3C2=O)CC1 [Loprazolam]	6.95
CCOC(=O)C(CCc1ccccc1)NC(C)C(=O)N1Cc2ccccc2CC1C(=O)O (stereo not drawn) [Quinapril]	9.03
CCSC(=O)N(CC)C1CCCCC1 [Cycloate]	11.7
CNC(=O)ON=C(CSC)C(C)(C)C [Thiofanox]	7.8
CNC(=O)Oc1ccc(N(C)C)c(C)c1 [Aminocarb  (Metacil)]	5.15
CCOC(=O)CC(SP(=O)(OC)OC)C(=O)OCC (stereo not drawn) [Malaoxon]	7.01
CCOP(=O)(OCC)OC(=CCl)c1ccc(Cl)cc1Cl (mixture of isomers) [Chlorfenvinphos (E/Z) Peak 1 (Main)]	11
Clc1cccc(N2CCNCC2)c1 [Chlorophenylpiperazine (meta-)<U+00A0>(mCPP)]	5.42
Nc1c(Cl)c(F)nc(OCC(=O)O)c1Cl [Fluroxypyr]	5.43
CC1CC(C)C(=O)C(C(O)CC2CC(=O)NC(=O)C2)C1 (stereo not drawn) [Cycloheximide]	5.99
CCCCn1cc(C(=O)c2cccc3ccc(C)cc23)c2ccccc21 [JWH-073-2-Methyl]	12.3
OCc1nnc2n1-c1ccc(Cl)cc1C(c1ccccc1)=NC2 [Alprazolam- alpha-Hydroxy]	8.11
CN(C)C(=O)Nc1cccc(C(F)(F)F)c1 [Fluometuron]	7.85
COc1ccc2[nH]cc(CCN(C)C)c2c1 [MeO-DMT (5-)]	3.98
CN=CNc1ccc(C)cc1C [N'-(2 4-Dimethylphenyl)-N-methylformamidine]	4.44
Nc1nc(N)nc(Cl)n1 [Atrazine-desethyl-desisopropyl]	3.03
COc1ccc(N)cc1N [4-Methoxy-1.3-phenylenediamine]	2.37
COc1ccccc1CC(=O)c1cn(CCC2CCCCC2)c2ccccc12 [RCS-8]	13
